# Measurements: ChEMBL document CHEMBL1130469, “Prolyl endopeptidase inhibitors1: N-acyl derivatives of L-thioproline-pyrrolidine” (Bioorg Med Chem Lett, 1997)
# Target: T1, Prolyl endopeptidase (Rattus norvegicus, UniProt O70196)
# T1 sequence (O70196 whole entry): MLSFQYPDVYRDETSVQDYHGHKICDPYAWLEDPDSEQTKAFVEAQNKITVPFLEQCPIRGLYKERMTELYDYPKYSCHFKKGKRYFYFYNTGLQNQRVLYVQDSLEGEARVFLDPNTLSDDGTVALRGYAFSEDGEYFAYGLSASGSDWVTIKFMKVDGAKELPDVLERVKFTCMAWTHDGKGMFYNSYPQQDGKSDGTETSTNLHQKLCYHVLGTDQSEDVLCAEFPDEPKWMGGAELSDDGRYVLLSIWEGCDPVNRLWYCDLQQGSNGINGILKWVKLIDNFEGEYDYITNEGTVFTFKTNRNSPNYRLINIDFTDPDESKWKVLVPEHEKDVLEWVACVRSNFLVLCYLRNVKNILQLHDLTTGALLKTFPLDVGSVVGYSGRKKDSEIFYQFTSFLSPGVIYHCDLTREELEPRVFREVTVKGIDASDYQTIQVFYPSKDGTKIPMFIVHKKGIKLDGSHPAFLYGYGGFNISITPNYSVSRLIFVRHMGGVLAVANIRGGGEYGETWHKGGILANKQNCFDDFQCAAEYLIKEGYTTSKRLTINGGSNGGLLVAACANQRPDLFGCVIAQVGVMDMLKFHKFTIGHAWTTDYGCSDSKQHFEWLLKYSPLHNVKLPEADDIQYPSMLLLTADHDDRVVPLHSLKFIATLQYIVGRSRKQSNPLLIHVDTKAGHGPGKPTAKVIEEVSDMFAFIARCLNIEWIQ
# Experiment: Inhibitory activity against rat brain Prolyl endopeptidase (PEP)
row,SMILES,IC50 [nM]
1,CCCCCCCCC(=O)N1CSC[C@H]1C(=O)N1CCCC1,38
2,CCCCC/C=C(\C)C(=O)N1CCC[C@H]1C(=O)N1CCCC1,73
3,CCC/C=C/C=C(\C)C(=O)N1CCC[C@H]1C(=O)N1CCCC1,207
4,CCCCCCCCC=CCCCCCCCC(=O)N1CSC[C@H]1C(=O)N1CCCC1,104
5,CCCCCCCCCCCCCC(=O)N1CSC[C@H]1C(=O)N1CCCC1,80
6,CCCCCCCCCCCC(=O)N1CSC[C@H]1C(=O)N1CCCC1,46
7,CCCCCCCCCCCCCCCCCCCC(=O)N1CSC[C@H]1C(=O)N1CCCC1,1160
8,CCCCCCCCCCC(=O)N1CSC[C@H]1C(=O)N1CCCC1,42
9,CCCCCCCCCCCCCCCC(=O)N1CSC[C@H]1C(=O)N1CCCC1,216

# Further compounds by falling IC50, results first:
row,IC50 [nM],SMILES
1,904,CCCCCCCCCCCCCCCCCC(=O)N1CSC[C@H]1C(=O)N1CCCC1
2,167,CCCC(=O)N1CSC[C@H]1C(=O)N1CCCC1
3,38,CCCCCCCCCC(=O)N1CSC[C@H]1C(=O)N1CCCC1
4,37,CCCCC(=O)N1CSC[C@H]1C(=O)N1CCCC1
5,37,CCCCCC(=O)N1CSC[C@H]1C(=O)N1CCCC1
6,34,CCCCC/C=C/C(=O)N1CCC[C@H]1C(=O)N1CCCC1
7,17,CCCCCCC(=O)N1CSC[C@H]1C(=O)N1CCCC1
8,11,CCCCCCCC(=O)N1CSC[C@H]1C(=O)N1CCCC1
